Activity calls are given as the source filed them.
Tests used:
[1] = biological target: T1, Type-1 angiotensin II receptor (Homo sapiens, UniProt P30556); experiment: AT1 receptor agonists, dose response, selectivity assay for APJ receptor agonist project, cell-based, uHTS hits (AID 488865); assay type: functional;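 also: beta-arrestin recruitment to AT1 measured by enzyme fragment complementation luminescence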
T1 sequence (P30556 whole entry): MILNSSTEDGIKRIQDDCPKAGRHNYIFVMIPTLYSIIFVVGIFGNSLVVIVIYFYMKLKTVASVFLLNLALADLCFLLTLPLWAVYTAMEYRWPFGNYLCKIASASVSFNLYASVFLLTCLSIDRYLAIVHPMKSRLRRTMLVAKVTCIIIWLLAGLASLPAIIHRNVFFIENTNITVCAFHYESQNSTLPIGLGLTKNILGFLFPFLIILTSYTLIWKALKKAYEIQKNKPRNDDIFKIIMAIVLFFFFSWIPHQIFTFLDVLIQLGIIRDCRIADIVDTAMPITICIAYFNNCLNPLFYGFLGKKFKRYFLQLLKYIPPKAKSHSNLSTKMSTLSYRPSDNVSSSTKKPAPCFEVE

SUMO-activating enzyme = SUMO-activating enzyme (Homo sapiens, UniProt Q9UBT2); experiment: SUMOylation inhibitor hit validation, confirmation, SUMOylation inhibitor project, biochemical, AlphaScreen (AID 2018); assay type: functional
SUMO-activating enzyme, sequence (Q9UBE0 whole entry): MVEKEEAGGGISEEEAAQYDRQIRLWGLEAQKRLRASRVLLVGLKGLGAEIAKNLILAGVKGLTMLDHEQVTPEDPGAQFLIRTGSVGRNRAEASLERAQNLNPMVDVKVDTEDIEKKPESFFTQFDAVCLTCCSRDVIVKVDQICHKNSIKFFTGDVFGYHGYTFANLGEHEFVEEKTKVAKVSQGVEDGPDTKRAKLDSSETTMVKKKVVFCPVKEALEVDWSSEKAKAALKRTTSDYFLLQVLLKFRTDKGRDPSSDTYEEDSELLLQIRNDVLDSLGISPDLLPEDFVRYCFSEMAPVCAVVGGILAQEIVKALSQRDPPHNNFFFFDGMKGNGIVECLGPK
SUMO-activating enzyme, sequence (Q9UBT2 whole entry): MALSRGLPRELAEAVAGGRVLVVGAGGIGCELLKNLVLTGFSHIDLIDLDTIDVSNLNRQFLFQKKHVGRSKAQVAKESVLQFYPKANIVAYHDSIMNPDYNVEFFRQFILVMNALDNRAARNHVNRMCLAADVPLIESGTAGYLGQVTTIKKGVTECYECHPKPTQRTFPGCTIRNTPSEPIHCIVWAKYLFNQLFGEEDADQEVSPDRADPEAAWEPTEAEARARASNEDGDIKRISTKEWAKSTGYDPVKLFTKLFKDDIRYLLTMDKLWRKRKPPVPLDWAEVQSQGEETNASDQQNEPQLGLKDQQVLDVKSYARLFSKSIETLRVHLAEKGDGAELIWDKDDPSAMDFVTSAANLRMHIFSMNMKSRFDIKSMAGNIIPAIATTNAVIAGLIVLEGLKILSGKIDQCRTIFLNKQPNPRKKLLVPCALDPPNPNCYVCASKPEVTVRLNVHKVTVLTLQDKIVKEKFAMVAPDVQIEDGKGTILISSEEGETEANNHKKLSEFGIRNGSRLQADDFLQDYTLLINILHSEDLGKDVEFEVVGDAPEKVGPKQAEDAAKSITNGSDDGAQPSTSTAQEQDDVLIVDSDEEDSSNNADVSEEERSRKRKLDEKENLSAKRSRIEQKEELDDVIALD

[2] = biological target: DNA dC->dU-editing enzyme APOBEC-3G (Homo sapiens, UniProt Q9HC16); experiment: Dose Response confirmation of small molecule APOBEC3G DNA Deaminase Inhibitors via a fluorescence-based single-stranded DNA deaminase assay. [Related pubchem assays (depositor defined):AID493012, AID493028]; assay type: functional
DNA dC->dU-editing enzyme APOBEC-3G, sequence (Q9HC16 whole entry): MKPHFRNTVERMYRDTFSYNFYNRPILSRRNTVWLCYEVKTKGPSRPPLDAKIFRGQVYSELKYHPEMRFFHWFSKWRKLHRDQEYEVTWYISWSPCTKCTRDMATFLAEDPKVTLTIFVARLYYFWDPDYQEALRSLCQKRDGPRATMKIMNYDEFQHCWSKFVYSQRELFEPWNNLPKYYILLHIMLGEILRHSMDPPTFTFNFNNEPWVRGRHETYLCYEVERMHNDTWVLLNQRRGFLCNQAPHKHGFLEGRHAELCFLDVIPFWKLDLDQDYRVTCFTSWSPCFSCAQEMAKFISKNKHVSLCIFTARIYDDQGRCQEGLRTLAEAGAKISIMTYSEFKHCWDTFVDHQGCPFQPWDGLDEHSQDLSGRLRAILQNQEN

[3] = biological target: T2, Dual specificity protein phosphatase 6 (Rattus norvegicus, UniProt Q64346); experiment: MKP-3 phosphatase inhibitors, primary screen, biochemical, rat enzyme, in vitro (AID 425)
T2 sequence (Q64346 whole entry): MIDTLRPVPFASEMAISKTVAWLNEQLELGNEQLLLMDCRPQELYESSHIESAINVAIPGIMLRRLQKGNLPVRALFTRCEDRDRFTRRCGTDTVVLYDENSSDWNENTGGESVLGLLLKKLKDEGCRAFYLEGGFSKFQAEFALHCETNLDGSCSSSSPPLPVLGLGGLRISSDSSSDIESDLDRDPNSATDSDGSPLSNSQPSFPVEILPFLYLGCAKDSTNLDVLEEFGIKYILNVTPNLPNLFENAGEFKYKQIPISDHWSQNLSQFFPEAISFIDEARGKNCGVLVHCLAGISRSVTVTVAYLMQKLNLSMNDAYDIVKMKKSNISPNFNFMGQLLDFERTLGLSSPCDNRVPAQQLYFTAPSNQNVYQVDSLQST

[4] = biological target: T3, Dual specificity protein phosphatase 3 (Homo sapiens, UniProt P51452); experiment: VHR1 phosphatase inhibitors, primary screen, biochemical, absorbance, uHTS (AID 1654)
T3 sequence (P51452 whole entry): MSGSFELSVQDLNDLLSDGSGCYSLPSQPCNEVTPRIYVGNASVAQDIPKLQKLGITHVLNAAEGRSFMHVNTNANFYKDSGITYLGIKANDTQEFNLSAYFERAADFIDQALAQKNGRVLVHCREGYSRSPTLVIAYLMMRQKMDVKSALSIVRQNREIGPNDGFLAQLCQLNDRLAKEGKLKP

[5] = biological target: T3, Dual specificity protein phosphatase 3; experiment: VHR1 phosphatase inhibitors, biochemical (AID 1878)
[6] = inhibitors of intracellular T. cruzi replication, confirmation, NIH3T3 host cells, beta-gal luminescence (AID 2044); assay type: functional, cell-based;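 also: intracellular parasites grown in NIH/3T3 mouse fibroblasts as host cells; luminescent beta-galactosidase reporter signal from transgenic T. cruzi replicating inside host cells; inhibitors lower the luminescence signal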
Vero = experiment: host cell cytotoxicity of antiviral hits, dose response, cytotoxicity control for West Nile virus antiviral project, secondary assay (AID 1650); assay type: functional; settings: Chlorocebus sabaeus
[7] = cytotoxicity in MIN6 insulinoma cells, dose response, cytotoxicity control, cell-based, mouse insulinoma (AID 2122); assay type: functional;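 also: confirmatory high-throughput counterscreen run to flag cytotoxic compounds; mouse MIN-6 beta cells carrying an insulin promoter eGFP reporter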
[8] = cytotoxicity toward NIH3T3 fibroblasts, dose response, counter-screen, cell-based, ATP luminescence, mouse fibroblasts (AID 2010); assay type: functional;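 also: cells exposed to compound for about 90 hours before reading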
Paired box protein Pax-8 = Paired box protein Pax-8 (Homo sapiens, UniProt Q06710); experiment: inhibitors of PAX8-driven TPO luciferase reporter, dose response, RMG-I cells, cherry-pick (AID 687027); assay type: functional, cell-based;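 also: luciferase reporter driven by Pax8 target thyroperoxidase promoter measured by SteadyGlo luminescence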
Paired box protein Pax-8, sequence (Q06710 whole entry): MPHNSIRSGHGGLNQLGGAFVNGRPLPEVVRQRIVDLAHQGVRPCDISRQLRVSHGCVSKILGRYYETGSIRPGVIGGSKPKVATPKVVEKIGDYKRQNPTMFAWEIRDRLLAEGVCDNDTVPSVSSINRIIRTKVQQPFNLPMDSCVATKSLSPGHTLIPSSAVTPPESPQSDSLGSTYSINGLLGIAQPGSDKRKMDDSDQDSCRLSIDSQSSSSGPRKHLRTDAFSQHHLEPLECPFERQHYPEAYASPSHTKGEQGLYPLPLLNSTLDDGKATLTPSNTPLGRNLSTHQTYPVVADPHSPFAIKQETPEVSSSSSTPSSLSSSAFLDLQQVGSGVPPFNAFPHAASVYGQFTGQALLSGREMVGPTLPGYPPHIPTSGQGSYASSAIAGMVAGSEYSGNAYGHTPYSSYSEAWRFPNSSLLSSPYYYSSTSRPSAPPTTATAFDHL

[9] = insulin promoter down-regulators in MIN6 cells, imaging, high-content screening, mouse beta cells (AID 1628); assay type: functional
[10] = biological target: T4, Ubiquitin-conjugating enzyme E2 N (Homo sapiens, UniProt P61088); assay type: functional
T4 sequence (P61088 whole entry): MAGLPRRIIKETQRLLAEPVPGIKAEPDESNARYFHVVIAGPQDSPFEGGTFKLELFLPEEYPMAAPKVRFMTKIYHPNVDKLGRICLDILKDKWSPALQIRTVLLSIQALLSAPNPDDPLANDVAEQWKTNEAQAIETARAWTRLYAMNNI

Bcl-2-related protein A1 = biological target: T5, Bcl-2-related protein A1 (Mus musculus, UniProt Q07440); assay type: functional;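 also: confirmatory dose–response counterscreen on Bfl-1, used to check hits from a UBC13 polyubiquitin inhibitor campaign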
T5 sequence (Q07440 whole entry): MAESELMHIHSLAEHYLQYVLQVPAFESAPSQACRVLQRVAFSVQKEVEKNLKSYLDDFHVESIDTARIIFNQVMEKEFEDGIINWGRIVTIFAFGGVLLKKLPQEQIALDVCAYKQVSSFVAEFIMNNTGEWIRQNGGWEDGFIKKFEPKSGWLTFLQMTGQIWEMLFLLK

[11] = biological target: T4, Ubiquitin-conjugating enzyme E2 N; assay type: functional; remark: listed apart in the source
[12] = biological target: Glyceraldehyde-3-phosphate dehydrogenase (Homo sapiens, UniProt P04406)
Glyceraldehyde-3-phosphate dehydrogenase, sequence (P04406 whole entry): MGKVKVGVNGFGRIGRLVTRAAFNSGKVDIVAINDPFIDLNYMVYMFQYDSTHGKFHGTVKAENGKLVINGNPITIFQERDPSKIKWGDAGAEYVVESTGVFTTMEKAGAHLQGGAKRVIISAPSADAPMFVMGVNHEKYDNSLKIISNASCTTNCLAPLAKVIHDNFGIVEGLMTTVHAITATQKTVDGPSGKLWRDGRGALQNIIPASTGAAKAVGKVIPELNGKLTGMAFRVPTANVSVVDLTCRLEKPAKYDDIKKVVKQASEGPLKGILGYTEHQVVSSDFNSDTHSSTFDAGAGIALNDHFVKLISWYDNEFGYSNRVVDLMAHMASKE

[13] = biological target: Alkaline phosphatase, placental type (Homo sapiens, UniProt P05187); experiment: PLAP enzyme inhibitors, confirmation, biochemical, luminescence (AID 1512); assay type: functional
Alkaline phosphatase, placental type, sequence (P05187 whole entry): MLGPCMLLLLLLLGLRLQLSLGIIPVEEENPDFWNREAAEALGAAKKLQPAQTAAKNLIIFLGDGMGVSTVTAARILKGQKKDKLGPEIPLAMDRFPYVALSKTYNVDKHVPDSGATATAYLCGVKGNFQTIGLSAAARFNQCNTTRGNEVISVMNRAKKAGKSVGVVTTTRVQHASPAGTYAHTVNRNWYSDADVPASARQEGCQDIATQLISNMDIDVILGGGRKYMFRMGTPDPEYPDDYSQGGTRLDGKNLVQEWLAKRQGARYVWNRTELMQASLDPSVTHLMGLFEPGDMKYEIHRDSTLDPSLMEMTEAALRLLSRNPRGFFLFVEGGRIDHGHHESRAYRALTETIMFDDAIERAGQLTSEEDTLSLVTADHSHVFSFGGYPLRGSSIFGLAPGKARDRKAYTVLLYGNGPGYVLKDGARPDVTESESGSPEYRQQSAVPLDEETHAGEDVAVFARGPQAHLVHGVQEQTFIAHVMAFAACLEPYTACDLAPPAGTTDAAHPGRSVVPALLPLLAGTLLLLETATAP

[14] = biological target: T6, Alkaline phosphatase, tissue-nonspecific isozyme (Homo sapiens, UniProt P05186); experiment: human TNAP enzyme inhibitors, SAR follow-up, biochemical, luminescent, dose response (AID 1056)
T6 sequence (P05186 whole entry): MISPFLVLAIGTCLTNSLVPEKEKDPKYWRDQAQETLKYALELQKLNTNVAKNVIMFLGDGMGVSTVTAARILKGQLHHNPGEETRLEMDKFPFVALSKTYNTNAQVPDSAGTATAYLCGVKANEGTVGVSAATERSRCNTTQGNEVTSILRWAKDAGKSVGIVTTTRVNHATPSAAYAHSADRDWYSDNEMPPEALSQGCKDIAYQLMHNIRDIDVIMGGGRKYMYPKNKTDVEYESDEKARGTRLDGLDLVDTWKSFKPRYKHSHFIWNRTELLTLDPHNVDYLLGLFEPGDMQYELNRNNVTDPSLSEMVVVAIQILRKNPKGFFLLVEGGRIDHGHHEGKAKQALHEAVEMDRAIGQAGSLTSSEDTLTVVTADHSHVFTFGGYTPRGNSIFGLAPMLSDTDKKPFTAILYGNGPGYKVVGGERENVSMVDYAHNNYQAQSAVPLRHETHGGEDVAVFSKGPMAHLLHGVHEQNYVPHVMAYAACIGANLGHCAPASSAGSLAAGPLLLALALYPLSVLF

[15] = biological target: Peroxisome proliferator-activated receptor gamma/Nuclear receptor coactivator 3 (Homo sapiens, UniProt P37231); experiment: (§1) TR-FRET dose response biochemical High Throughput Screening assay for agonists of the steroid receptor coactivator 3 (SRC-3) recruitment by the peroxisome proliferator-activated receptor gamma (PPAR gamma): non-selective agonists. [Related pubchem assays: 1301 (Confirmation screen.), 1048 (Primary screen.)]; assay type: functional
[16] = biological target: Peroxisome proliferator-activated receptor gamma/Nuclear receptor coactivator 1 (Homo sapiens, UniProt P37231); experiment: as §1, with “1 (SRC-1)” for “3 (SRC-3)”, “assays (depositor defined):AID1300, AID1808, AID504735, AID631]” for “assays: 1301 (Confirmation screen.), 1048 (Primary screen.)]”; assay type: protein assay
[17] = biological target: Peroxisome proliferator-activated receptor gamma/Nuclear receptor coactivator 2 (Homo sapiens, UniProt P37231); experiment: TR-FRET dose response biochemical High Throughput Screening assay for agonists of the steroid receptor coactivator 2 (SRC-2) recruitment by the peroxisome proliferator-activated receptor gamma (PPAR gamma): non-selective agonists. [Related pubchem assays: 1297, 1032 ]; assay type: functional
[18] = A Cell Based Secondary Assay To Explore Cytotoxicity of Compounds that Sensitize Mycobacterium Tuberculosis to Beta-Lactam Antibiotics.; assay type: functional
[19] = biological target: Lysine-specific demethylase 4C (Homo sapiens, UniProt Q9H3R0); experiment: GASC-1 (JMJD2C) histone demethylase inhibitors, dose response, biochemical, DELFIA europium, cherry-picked samples (AID 488835); assay type: functional
[20] = HEp-2 cell cytotoxicity, dose response, cytotoxicity control for RSV inhibitor project, HTS (AID 2410); assay type: functional; settings: human respiratory syncytial virus
HEK293 [21] = experiment: cells; assay type: functional, cell-based; settings: Homo sapiens
HEK293 [22] = experiment: cells; assay type: functional, cell-based; settings: Homo sapiens; remark: listed apart in the source
HEK293 [23] = experiment: NOD2 signaling inhibitors in MDP-stimulated cells, cell-based, uHTS, luminescence (AID 2001); assay type: functional; settings: Homo sapiens
HEK293 [24] = experiment: cells; assay type: functional, cell-based; settings: Homo sapiens; remark: listed apart in the source
[25] = biological target: Nucleotide-binding oligomerization domain-containing protein 2 (Homo sapiens, UniProt Q9HC29); experiment: NOD2 signaling inhibitors, cell-based, luminescence, uHTS, HEK293 (AID 1566); assay type: functional
Nucleotide-binding oligomerization domain-containing protein 2, sequence (Q9HC29 whole entry, the tested form may be a part): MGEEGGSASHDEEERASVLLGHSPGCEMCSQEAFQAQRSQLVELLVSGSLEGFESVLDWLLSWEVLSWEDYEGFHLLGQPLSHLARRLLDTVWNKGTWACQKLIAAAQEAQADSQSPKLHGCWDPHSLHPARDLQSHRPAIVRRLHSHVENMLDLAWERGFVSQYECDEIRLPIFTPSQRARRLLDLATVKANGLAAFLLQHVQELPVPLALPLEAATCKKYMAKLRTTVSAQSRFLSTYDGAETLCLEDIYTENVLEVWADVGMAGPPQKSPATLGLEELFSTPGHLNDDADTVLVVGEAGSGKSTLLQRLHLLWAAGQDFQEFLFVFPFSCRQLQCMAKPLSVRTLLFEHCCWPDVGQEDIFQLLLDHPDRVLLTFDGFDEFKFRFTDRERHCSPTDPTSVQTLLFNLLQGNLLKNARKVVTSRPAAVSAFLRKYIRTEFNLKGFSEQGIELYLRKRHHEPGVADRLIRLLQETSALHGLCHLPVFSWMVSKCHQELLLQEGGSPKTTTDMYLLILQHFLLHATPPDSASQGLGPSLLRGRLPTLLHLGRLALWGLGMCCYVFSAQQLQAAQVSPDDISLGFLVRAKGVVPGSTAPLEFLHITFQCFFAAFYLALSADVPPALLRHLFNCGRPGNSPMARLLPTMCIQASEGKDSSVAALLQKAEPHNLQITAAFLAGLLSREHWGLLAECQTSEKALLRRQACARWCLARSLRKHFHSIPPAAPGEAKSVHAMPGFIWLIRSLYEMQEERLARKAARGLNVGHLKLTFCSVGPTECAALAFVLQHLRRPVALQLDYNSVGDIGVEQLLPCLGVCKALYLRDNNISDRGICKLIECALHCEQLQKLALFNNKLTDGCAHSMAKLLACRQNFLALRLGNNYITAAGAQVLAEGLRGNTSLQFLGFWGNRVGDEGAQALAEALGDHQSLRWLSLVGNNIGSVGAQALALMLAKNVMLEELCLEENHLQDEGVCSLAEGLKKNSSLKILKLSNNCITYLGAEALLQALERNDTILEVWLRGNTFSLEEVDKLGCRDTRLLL

HEK293 [26] = experiment: NOD1 signaling inhibitors, primary screen, cell-based, luminescence, uHTS (AID 1578); assay type: functional; settings: Homo sapiens
Coagulation factor XII = Coagulation factor XII (Homo sapiens, UniProt P00748); assay type: functional;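 also: activated factor XIIa alpha cleaving a fluorogenic AMC peptide substrate; inhibitor potency from loss of enzyme activity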
Coagulation factor XII, sequence (P00748 20-372 limits assumed): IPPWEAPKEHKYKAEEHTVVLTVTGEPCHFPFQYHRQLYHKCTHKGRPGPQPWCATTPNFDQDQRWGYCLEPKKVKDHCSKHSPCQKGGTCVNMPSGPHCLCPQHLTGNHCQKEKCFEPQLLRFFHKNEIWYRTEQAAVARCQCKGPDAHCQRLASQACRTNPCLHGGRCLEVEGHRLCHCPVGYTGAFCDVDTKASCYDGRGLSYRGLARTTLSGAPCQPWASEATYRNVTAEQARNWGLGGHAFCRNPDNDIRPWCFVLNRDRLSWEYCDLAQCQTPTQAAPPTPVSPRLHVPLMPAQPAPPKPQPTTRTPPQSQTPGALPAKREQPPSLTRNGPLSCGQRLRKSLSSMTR
Coagulation factor XII, sequence (P00748 373-615 limits assumed): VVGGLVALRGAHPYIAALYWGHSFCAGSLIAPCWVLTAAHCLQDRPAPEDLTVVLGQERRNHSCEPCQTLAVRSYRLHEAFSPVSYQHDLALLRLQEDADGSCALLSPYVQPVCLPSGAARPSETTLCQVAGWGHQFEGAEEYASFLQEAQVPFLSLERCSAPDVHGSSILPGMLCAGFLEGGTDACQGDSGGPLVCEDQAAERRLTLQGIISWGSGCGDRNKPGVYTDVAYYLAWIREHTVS

SMILES: CCC(C)NC(=O)CSC1=Nc2ccccc2C2=NC(CC(=O)NCc3ccccc3)C(=O)N12 (centres undefined)
- EC50 [1]: > 100 µM (inactive)

SMILES: O=C(Nc1ccc(N2C(=O)C3C4C=CC(C4)C3C2=O)cc1)Nc1cccnc1 (centres undefined)
- IC50 (SUMO-activating enzyme): > 100 µM (inactive)

SMILES: COC(=O)c1sc(NC(=O)c2cc(-c3ccccc3)nc3ccccc23)c(C#N)c1C
- IC50 [2]: 28.6 µM (active)
- IC50 [3]: > 158 µM (not active)
- IC50 [4]: 1.15 µM (active)
- IC50 [5]: 2.08 µM (active)

SMILES: O=c1cc(C(Cl)(Cl)Cl)oc2c1ccc1ccccc12
- EC50 [6]: 0.893 µM (active)
- CC50 (Vero): 5.35 µM (active)
- IC50 [7]: 1.28 µM (active)
- EC50 [8]: 3.32 µM (active)
- AC50 (Paired box protein Pax-8): 2.66 µM (active)
- IC50 [9]: 1.78 µM (active)

SMILES: NC(=S)N=Nc1c(O)n(CCCl)c2ccccc12
- IC50 [10]: 18 µM (active)
- IC50 (Bcl-2-related protein A1): > 20 µM (inactive)
- IC50 [11]: 10.8 µM (active)

SMILES: COc1ccccc1Cc1nc(N)nn1-c1ccccc1
- IC50 [12]: > 100 µM (not active)
- IC50 [13]: > 100 µM (inactive)
- IC50 [14]: > 100 µM (inactive)

SMILES: O=C(O)c1cc(-c2ccc(Cl)cc2Cl)[nH]n1
- IC50 [12]: > 100 µM (not active)
- IC50 [13]: > 100 µM (inactive)
- IC50 [14]: 0.392 µM (active)

SMILES: CCn1c(=O)cc(SCC(=O)N2CCN(C3CCCCC3)CC2)c2ccccc21
- EC50 [15]: > 79.4 µM (not active)
- IC50 [10]: 14.5 µM (active)
- IC50 (Bcl-2-related protein A1): > 20 µM (inactive)
- EC50 [16]: > 79.4 µM (inactive)
- EC50 [17]: > 79.4 µM (not active)
- IC50 [11]: > 20 µM (inactive)

SMILES: Cc1cc(C=C2C(=O)NC(=S)NC2=O)c(C)n1-c1ccc2c(c1)OCO2
- CC50 [18]: > 40 µM (active)
- AC50 [19]: 9.41 µM (active)
- CC50 [20]: 14.3 µM (active)

SMILES: Brc1ccc2ncnc(NCc3ccco3)c2c1
- IC50 (HEK293 [21]): > 20 µM (inactive)
- IC50 (HEK293 [22]): 4.57 µM (active)
- IC50 (HEK293 [23]): 5.54 µM (active)
- IC50 (HEK293 [24]): > 20 µM (inactive)
- EC50 [25]: 6.5 µM (active)
- EC50 (HEK293 [26]): 3.41 µM (active)

SMILES: COc1ccc(NC(NC(=O)c2cccnc2)C(Cl)(Cl)Cl)cc1 (centres undefined)
- IC50 (Coagulation factor XII): > 50 µM (inactive)

SMILES: CCOC(=O)c1sc(N(C)C(C)=O)nc1C
- IC50 (Coagulation factor XII): > 50 µM (inactive)

SMILES: Cc1ccc(/C=N/NC(=O)CSc2nnc(-c3ccc(Cl)cc3)n2-c2ccccc2)o1
- EC50 [1]: > 100 µM (inactive)

From ChEMBL document CHEMBL1201862, “PubChem BioAssay data set” (2004)
